# Measurements taken from ChEMBL document CHEMBL1150530, “Thromboxane receptor antagonism combined with thromboxane synthase inhibition. 6. 4-substituted 3-pyridinylalkanoic acids” (Bioorg Med Chem Lett, 1992).
# Experiments:
# Homo sapiens [1] = organism: Homo sapiens; assay: Inhibitory concentration against U 46619 induced aggregation of human platelet rich plasma(PRP); assay type: functional
# Thromboxane-A synthase [2] = molecular target: T1, Thromboxane-A synthase (Homo sapiens, UniProt P24557); assay: Inhibitory concentration against thromboxane synthase enzyme
# T1 sequence (P24557 whole entry): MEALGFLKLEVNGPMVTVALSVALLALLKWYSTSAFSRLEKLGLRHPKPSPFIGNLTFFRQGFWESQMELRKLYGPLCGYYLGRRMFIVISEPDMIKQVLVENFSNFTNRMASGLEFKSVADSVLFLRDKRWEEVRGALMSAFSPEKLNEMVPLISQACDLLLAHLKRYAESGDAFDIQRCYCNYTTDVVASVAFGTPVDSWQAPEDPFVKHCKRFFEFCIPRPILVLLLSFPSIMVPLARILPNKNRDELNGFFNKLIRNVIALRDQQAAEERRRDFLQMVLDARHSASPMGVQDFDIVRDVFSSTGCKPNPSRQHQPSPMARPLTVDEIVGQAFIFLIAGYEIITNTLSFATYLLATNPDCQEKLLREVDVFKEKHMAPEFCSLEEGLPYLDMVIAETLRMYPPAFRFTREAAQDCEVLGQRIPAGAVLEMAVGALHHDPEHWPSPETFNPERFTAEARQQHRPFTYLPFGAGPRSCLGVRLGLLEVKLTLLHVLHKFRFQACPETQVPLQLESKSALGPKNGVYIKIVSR
# Homo sapiens [3] = organism: Homo sapiens; assay: Inhibitory concentration against U 46619 induced aggregation of human washed platelets(WP); assay type: functional
# Homo sapiens [4] = organism: Homo sapiens; assay: Inhibitory concentration against U 46619 induced aggregation of human platelet rich plasma(PRP); IA=Inactive; assay type: functional
# Homo sapiens [5] = organism: Homo sapiens; assay: Inhibitory concentration against U 46619 induced aggregation of human washed platelets(WP); IA=Inactive; assay type: functional
# Thromboxane-A synthase [6] = molecular target: T1, Thromboxane-A synthase; assay: Inhibitory concentration against thromboxane synthase enzyme; IA=Inactive
smiles,measurement,setting,value
O=C(O)CCCCCc1cnccc1CNS(=O)(=O)c1ccc(Cl)cc1,IC50,Homo sapiens [1],1080 nM
same,IC50,Thromboxane-A synthase [2],66 nM
same,IC50,Homo sapiens [3],220 nM
O=C(O)CCCCCCc1cnccc1CCCNS(=O)(=O)c1ccc(Cl)cc1,IC50,Homo sapiens [1],7970 nM
same,IC50,Thromboxane-A synthase [2],15 nM
same,IC50,Homo sapiens [3],1440 nM
O=C(O)CCCCCc1cnccc1CCNS(=O)(=O)c1ccc(Cl)cc1,IC50,Homo sapiens [1],610 nM
same,IC50,Thromboxane-A synthase [2],43 nM
same,IC50,Homo sapiens [3],195 nM
O=C(O)CCCCCc1cnccc1CCCNS(=O)(=O)c1ccc(Cl)cc1,IC50,Homo sapiens [1],670 nM
same,IC50,Thromboxane-A synthase [2],100 nM
same,IC50,Homo sapiens [3],36 nM
O=C(O)CCCCCCc1cnccc1NS(=O)(=O)c1ccc(Cl)cc1,IC50,Homo sapiens [4],Not Active
same,IC50,Homo sapiens [5],Not Active
same,IC50,Thromboxane-A synthase [6],Not Active
O=C(O)CCCCCCc1cnccc1CCNS(=O)(=O)c1ccc(Cl)cc1,IC50,Homo sapiens [1],440 nM
same,IC50,Thromboxane-A synthase [2],80 nM
same,IC50,Homo sapiens [3],94 nM
